Data published in patent publication US11098040B2, “Compounds and methods of use” (Ferro Therapeutics, Inc., priority 2018, dated 2021).
Read-outs that look alike come from different tables or passages of the source.

What was measured:
[1] = Whole blood stability, mouse; assay type: in vitro ADME
Text: (§1) The results of the assay on stability in blood and IC50 values for pancreatic cancer cell line KP4 are given below in Table 24.

[2] = test system: KP4; assay: Cell viability assay (CellTiter Glo), pancreatic ductal adenocarcinoma KP4; assay type: cell-based, human
How it was run: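 KP4 cells seeded at 1,000–10,000 per well, treated 96 h with 9-point 3-fold dilutions from 30 μM top (4.6 nM–30 μM, duplicates; ≤0.25% DMSO). Viability by CellTiter Glo luminescence; % inhibition relative to DMSO-only wells, giving IC50, relative IC50 or % top inhibition.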

[3] = Whole blood stability, human; assay type: in vitro ADME
Text: as §1

[4] = test system: A549; assay: Cell viability assay, A549 cells; assay type: cell-based
Method: Example 5: Inducer Compound Effect on Growth of A549 and KP4 Cells
Cell viability assay was performed to assess the potency of the compounds in cancer cell line KP4 (pancreatic ductal adenocarcinoma). Cells at a density of 1,000-10,000 cells/well were seeded in 96-well plates and incubated at 37° C. overnight. A series of 9 different concentrations of compound stocks (500×) were created by 3-fold serial dilution in DMSO. These compounds were further diluted in culture media and then added to cells so that the final DMSO concentration was equal to 0.25% or less. After 96 hours of incubation, 50 μL of CellTiter Glo reagent (Promega) was added to each well and luminescence was measured after 10 minutes using EnVision (PerkinElmer). All compounds were tested initially from 30 μM as the top concentration in duplicates (range of 4.6 nM-30 μM). […] Luminescence from cells treated with DMSO alone was set as Max and % of inhibition was calculated as follows: Inhibition %=(Max-Sample value)/Max*100. Data was analyzed using XL-fit software (ID Business Solutions Ltd.). IC50, relative IC50, or % of top inhibition was calculated. […]

[5] = test system: SJSA-1; assay: Cell proliferation (Alamar Blue) assay, SJSA-1 osteosarcoma, with/without ferrostatin; assay type: cell-based, human; details: read-out: IC50
Method: (§2) Cell viability assay was performed to assess the potency of the compounds in human cancer cell lines 786-O (renal cell carcinoma) and SJSA-1 (osteosarcoma). Additional cell lines, such as those described above in Example 4 as well as various others, e.g., pancreatic cancer cell lines (Panc 02.13, BxPC-3, Panc 12, Panc 02.03, Panc 6.03, PSN-1, HPAC, and Capan-1) and prostate cancer cell lines (PC-3, DU145, 22Rv1, NCI-H660, BPH1, LNCaP, BM-1604, and MDA PCa 2b), were tested for select compounds as shown in Table 25.
(§3) Cells (SJSA-1, 786-O and A431) were seeded (5000 cells/100 μL/well) in 96-well tissue culture plate and incubated at 37° C./5% CO2 for 16-24 hours. The cells were then treated with compounds (25 μL of 5×). The compound concentrations were 10-0.0005 μM prepared in 3-fold serial dilutions with final DMSO concentration of 1%. The plates were then incubated for 24 h at 37° C./5% CO2 in a moist environment. Then Alamar Blue™ reagent (final concentration 1×-12.5 μL) was added to each well and incubated for 1.5 hours at 37° C./5% CO2. The plates were read on fluorescence reader at 540 nm excitation and 590 nm emission wavelengths. The IC50 values were subsequently determined using a sigmoidal dose-response curve (variable slope) in GraphPad Prism® 5 software.
(§4) Studies have shown that lipophilic antioxidants, such as ferrostatin, can rescue cells from GPX4 inhibition-induced ferroptosis. For instance, mesenchymal state GPX4-knockout cells can survive in the presence of ferrostatin, however, when the supply of ferrostatin is terminated, these cells undergo ferroptosis (see, e.g., Viswanathan et al., Nature 547:453-7, 2017). […] Accordingly, the ability of a molecule to induce ferroptotic cancer cell death, and that such ability is admonished by the addition of ferrostatin, is clear indication that the molecule is an GPX4 inhibitor.

[6] = test system: 786-O; assay: Cell proliferation (Alamar Blue) assay, 786-O renal cell carcinoma, with/without ferrostatin; assay type: cell-based; details: Homo sapiens, 786-0, Cell Line 786-O; read-out: IC50
Method: as §2, §3, §4

[7] = Homo sapiens, KP-4, 96 h, pancreatic cancer cell line KP4, 96 hours, CellTiter Glo, read-out: IC50 μM KP4
[8] = Homo sapiens, A549, Cell Line A549, read-out: IC50
[9] = Homo sapiens, KP-4, Cell Line KP4, read-out: IC50
[10] = Homo sapiens, SJSA-1, Cell Line SJSA-1
[11] = Homo sapiens, A549, A549, read-out: IC50 for A549

Row | Structure (SMILES) | IC50 [4, 8] [µM] | IC50 [2, 9] [µM] | IC50 [5, 10] [µM] | IC50 [6] [µM] | further results
1 | CC[C@H]1Cc2c([nH]c3ccccc23)[C@H](c2ccc(N3CCOCC3)cc2)N1C(=O)CCl [Compound 117] | 4.71 | – | – | – | Whole Blood Stability % Remaining at 37° C. Mouse ([1]; 0 min): 100.0%; Whole Blood Stability % Remaining at 37° C. Mouse ([1]; 30 min): 92.3%; Whole Blood Stability % Remaining at 37° C. Mouse ([1]; 60 min): 45.8%; IC50 [2, 7]: < 0.01 µM; Whole Blood Stability % Remaining at 37° C. Human ([3]; 0 min): 100.0%; Whole Blood Stability % Remaining at 37° C. Human ([3]; 30 min): 80.5%; Whole Blood Stability % Remaining at 37° C. Human ([3]; 60 min): 70.3%
2 | CC(C)[C@H]1Cc2c([nH]c3ccccc23)[C@H](c2ccc(N3CCOCC3)cc2)N1C(=O)CCl [Compound 119] | 12.8 | 0.102 | – | – | –
3 | C[C@H]1Cc2c([nH]c3ccc(Cl)cc23)[C@H](c2ccc(N3CCOCC3)cc2)N1C(=O)CCl [Compound 120] | 0.807 | – | – | – | IC50 [2, 7]: 0.1 to 0.5 µM
4 | C#CC(=O)N1[C@@H](CCCC)Cc2c([nH]c3c(F)cc(CO)cc23)[C@@H]1c1ccc(F)cc1 [Compound 134] | > 30 | – | 0.146 | 8.19 | –
5 | C#CC(=O)N1[C@@H](CCCC)Cc2c([nH]c3ccccc23)[C@@H]1C12CC(F)(C1)C2 [Compound 154] | 7.95 | – | 0.108 | 0.117 | –
6 | C#CC(=O)N1[C@@H](CCCC)Cc2c([nH]c3ccc(OC)cc23)[C@@H]1c1ccc(F)cc1 [Compound 155] | 8.52 | – | 0.081 | 0.113 | –
7 | C#CC(=O)N1[C@@H](CCCCCC)Cc2c([nH]c3ccccc23)[C@@H]1c1ccc(F)cc1 [Compound 176] | 4.1 | – | 0.206 | – | IC50 ([5]; Cell Line SJSA-1): 0.25 µM; IC50 ([4]; Cell Line A549, read-out: IC50): 4.18 µM
8 | C#CC(=O)N1[C@@H](c2ccc(F)cc2)c2[nH]c3ccccc3c2C[C@@H]1C1CCCC1 [Compound 177] | 3.22 | – | 0.0677 | 0.0788 | –
9 | C=CC(=O)N1[C@@H](CCCC)Cc2c([nH]c3ccccc23)[C@@H]1c1ccc(F)cc1 [Compound 179] | 27.4 | – | > 30 | > 30 | –
10 | CC#CC(=O)N1[C@@H](CCCC)Cc2c([nH]c3ccccc23)[C@@H]1c1ccc(F)cc1 [Compound 180] | 28.4 | – | > 30 | > 30 | –
11 | C#CC(=O)N1[C@@H](C)Cc2c([nH]c3ccccc23)[C@@H]1C12CC(F)(C1)C2 [Compound 182] | > 30 | – | 0.667 | 0.962 | –
12 | C=C(C(=O)N1[C@@H](CCCC)Cc2c([nH]c3ccccc23)[C@@H]1c1ccc(F)cc1)C(F)(F)F [Compound 184] | > 30 | – | 16.2 | 12.3 | –
13 | C=C(F)C(=O)N1[C@@H](CCCC)Cc2c([nH]c3ccccc23)[C@@H]1c1ccc(F)cc1 [Compound 186] | > 30 | – | > 30 | > 30 | –
14 | C#CC(=O)N1[C@@H](c2ccc(F)cc2)c2[nH]c3ccccc3c2C[C@@H]1C#N [Compound 190] | 3.05 | – | 0.908 | 1.2 | –
15 | C#CC(=O)N1[C@@H](c2ccc(C3CCOCC3)cc2)c2[nH]c3ccccc3c2C[C@@H]1C [Compound 192] | 14.2 | – | 0.12 | 0.194 | –
16 | C#CC(=O)N1[C@@H](c2ccc(OC)cc2)c2[nH]c3ccccc3c2C[C@@H]1C [Compound 193] | 13.3 | – | 0.175 | 0.223 | –
17 | C#CC(=O)N1[C@@H](c2ccc(C#N)cc2)c2[nH]c3ccccc3c2C[C@@H]1C [Compound 194] | 14.3 | – | 0.265 | 0.286 | –
18 | C#CC(=O)N1[C@@H](c2ccc(Br)cc2)c2[nH]c3ccccc3c2C[C@@H]1C [Compound 195] | 16.4 | – | 0.256 | 0.394 | –

Row | Structure (SMILES) | IC50 [4, 8] [µM] | IC50 [2, 9] [µM] | IC50 [5, 10] [µM] | IC50 [6] [µM] | further results
19 | CC(C)=CC(=O)N1[C@@H](c2ccc(N3CCOCC3)cc2)c2[nH]c3ccccc3c2C[C@@H]1C [Compound 225] | > 30 | – | – | > 10 | –
20 | C/C=C/C(=O)N1[C@@H](c2ccc(N3CCOCC3)cc2)c2[nH]c3ccccc3c2C[C@@H]1C [Compound 228] | > 30 | > 30 | – | – | –
21 | C=C(C)C(=O)N1[C@@H](c2ccc(N3CCOCC3)cc2)c2[nH]c3ccccc3c2C[C@@H]1C [Compound 229] | > 30 | > 30 | – | – | –
22 | C[C@H]1Cc2c([nH]c3ccccc23)[C@H](c2ccc(N3CCOCC3)cc2)N1C(=O)/C=C/C(F)(F)F [Compound 230] | 22 | > 30 | – | – | –
23 | C[C@H]1Cc2c([nH]c3ccc(C(C)(C)O)cc23)[C@H](c2ccc(N3CCOCC3)cc2)N1C(=O)CCl [Compound 235] | 7.18 | 0.041 | – | – | –
24 | C[C@H]1Cc2c([nH]c3ccccc23)[C@H](c2ccc(C3(O)COC3)cc2)N1C(=O)CCl [Compound 236] | 17.5 | 1.2 | – | – | IC50 ([2]; Cell Line KP4, read-out: IC50): > 1 µM
25 | C[C@H]1Cc2c([nH]c3ccccc23)[C@H](c2ccc(C3(O)CCOCC3)cc2)N1C(=O)CCl [Compound 237] | 1.86 | 0.458 | – | – | –
26 | C=CC(=O)N1[C@@H](c2ccc(N3CCOCC3)cc2)c2[nH]c3ccccc3c2C[C@@H]1C [Compound 238] | > 10 | > 10 | – | – | –
27 | [2H]C([2H])(Cl)C(=O)N1[C@@H](c2ccc(C(=O)NC34CC5CC(CC(C5)C3)C4)cc2)c2[nH]c3ccccc3c2C[C@@H]1C(=O)OC [Compound 250] | 2.4 | – | – | – | –
28 | CC(C)(C)OC(=O)c1ccc([C@H]2c3[nH]c4ccccc4c3C[C@H](CO)N2C(=O)CCl)cc1 [Compound 257] | 8.14 | 10.4 | – | – | –
29 | CN(C)C(=O)[C@H]1Cc2c([nH]c3ccccc23)[C@H](c2ccc(N)cc2)N1C(=O)CCl [Compound 259] | 7.97 | 0.179 | – | – | IC50 ([2]; Cell Line KP4, read-out: IC50): 0.212 µM
30 | COC(=O)[C@H]1Cc2c([nH]c3ccccc23)[C@H](c2ccc(C(=O)OC(C)(C)C)cc2)N1C(=O)C(C)(C)CCl [Compound 264] | 4.45 | 8.69 | – | – | –
31 | COC(=O)[C@H]1Cc2c([nH]c3ccccc23)[C@H](c2ccc(O)cc2)N1C(=O)CCl [Compound 265] | 25.4 | – | – | – | Whole Blood Stability % Remaining at 37° C. Mouse ([1]; 0 min): 100.0%; Whole Blood Stability % Remaining at 37° C. Mouse ([1]; 30 min): 75.5%; Whole Blood Stability % Remaining at 37° C. Mouse ([1]; 60 min): 61.6%; IC50 [2, 7]: 0.1 to 0.5 µM; Whole Blood Stability % Remaining at 37° C. Human ([3]; 0 min): 100.0%; Whole Blood Stability % Remaining at 37° C. Human ([3]; 30 min): 61.6%; Whole Blood Stability % Remaining at 37° C. Human ([3]; 60 min): 45.2%
32 | CC#CC(=O)N1[C@@H](c2ccc(C(=O)OC)cc2)c2[nH]c3ccccc3c2C[C@@H]1C(=O)OC [Compound 272] | 6.45 | 3.99 | – | – | –
33 | C=CC(=O)N1[C@@H](c2ccc(C(=O)OC)cc2)c2[nH]c3ccccc3c2C[C@@H]1C(=O)OC [Compound 274] | 11.8 | 4.54 | – | – | –
34 | COC(=O)c1ccc([C@H]2c3[nH]c4ccc(Cl)cc4c3C[C@H](C(=O)OC)N2C(=O)CCl)cc1 [Example 93] | – | – | – | – | IC50 [4, 11]: 0.25 µM
35 | C[C@H]1Cc2c([nH]c3ccc(Cl)cc23)[C@H](c2ccc(N3CCOCC3)cc2)N1C(=O)CCl [Example 120] | – | 0.362 | – | – | IC50 [4, 11]: 0.81 µM
36 | COCCOCCOCCOCCOC(=O)[C@H]1Cc2c([nH]c3ccccc23)[C@H](c2ccc(NC34CC5CC(CC(C5)C3)C4)cc2)N1C(=O)CCl [Example 189] | 4.11 | – | 4.2 | – | –
